Reference: patent US8163788B2, “Low-molecular inhibitors of cytohesin-family guanine nucleotide exchange factors” (Rheinische Friedrich-Wilhelms Universitat Bonn, priority 2004, dated 2012)

Experiments:
sec7-domain of Gea2 = target: T1, sec7-domain of Gea2 (Saccharomyces cerevisiae, UniProt P39993); test: GDP/GTP exchange on NΔ17-ARF1 catalysed by sec7-domain (tryptophan fluorescence); format: biochemical
T1 construct: 1 μM of the purified sec7-domain of cytohesin-1, cytohesin-2 and Gea2; made in house; host or cells: E. coli BL21DE3
T1 sequence (P39993 570-714): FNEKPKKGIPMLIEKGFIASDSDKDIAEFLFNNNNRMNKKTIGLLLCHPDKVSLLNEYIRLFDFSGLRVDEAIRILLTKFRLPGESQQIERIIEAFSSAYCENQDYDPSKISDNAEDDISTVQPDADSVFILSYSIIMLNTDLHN
Protocol: (§1) The IC50 value for the inhibition of the exchange activity of the sec7-domains of various guanine nucleotide exchange factors of the compounds (9), (10), (11), (12), (14) and (19) was determined.
(§2) For this purpose, the sec7-domains of cytohesin-1, cytohesin-2 and Gea2 as well as the NΔ 17-ARF 1, a mutant of the ARF protein, recombinantly expressed in E. coli BL21DE3, were purified by means of a standard method and used as catalysts for the exchange from GDP to GTP in GTPases of the family of the ADP ribosylation factors. The exchange from GDP to GTP induces a conformation change of the ribosylation factor, as a result of which the fluorescence of a tryptophan radical of the protein is increased.
(§3) In 50 mM of HEPES, pH 7.4, 120 mM of KCl, 1 mM of MgCl2, 45 μM of GTP S, the compounds (9), (10), (11), (12), (14) and (19), each in concentrations of 1 μM to 30 μM, were added to 1 μM NΔ 17-ARF1 and, in each case, 1 μM of the purified sec7-domain of cytohesin-1, cytohesin-2 and Gea2, and the fluorescence was measured in a Varioskan, Thermo LifeSciences Inc., at the following wavelengths: excitation: 275 nm, emission 340 nm.
(§4) The IC50 value can be determined by plotting the initial rise of the fluorescence signal against the added concentrations of the compounds. The IC50 value corresponds to the concentration of the compounds at which the activity of the protein is reduced to half. […] Brefeldin A, a specific inhibitor of the […] Gea2 served as the control.

[1] = target: T2, sec7-domain of cytohesin-1 (Homo sapiens, UniProt Q15438); test: as above; format: biochemical; conditions: 1 μM NΔ17-ARF1, 1 μM sec7-domain, compounds 1 μM to 30 μM
T2 construct: central sec7-domain, corresponding to the amino acids 62-244 in cytohesin-1; made in house; host or cells: E. coli BL21DE3
T2 sequence (Q15438 62-244): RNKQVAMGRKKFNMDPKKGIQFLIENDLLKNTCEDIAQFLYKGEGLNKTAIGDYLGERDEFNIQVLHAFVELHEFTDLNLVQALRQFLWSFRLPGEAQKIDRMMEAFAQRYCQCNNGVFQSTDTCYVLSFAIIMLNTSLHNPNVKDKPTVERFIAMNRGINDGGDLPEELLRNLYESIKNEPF
Protocol: as §1, §2, §3, §4

[2] = tested on: sec7-domain of cytohesin-1; test: as above; format: biochemical; conditions: conclusion in words from Table 1
Protocol: as §1, §2, §3, §4

[3] = target: T3, sec7-domain of cytohesin-2 (Homo sapiens, UniProt Q99418); test: as above; format: biochemical; conditions: 1 μM NΔ17-ARF1, 1 μM sec7-domain, compounds 1 μM to 30 μM
T3 construct: 1 μM of the purified sec7-domain of cytohesin-1, cytohesin-2 and Gea2; made in house; host or cells: E. coli BL21DE3
T3 sequence (Q99418 72-201 limits assumed): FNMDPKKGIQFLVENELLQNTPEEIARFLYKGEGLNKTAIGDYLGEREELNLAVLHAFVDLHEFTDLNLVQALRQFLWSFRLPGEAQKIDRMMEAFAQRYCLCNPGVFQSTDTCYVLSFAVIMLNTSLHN
Protocol: as §1, §2, §3, §4

[4] = tested on: Peripheral blood lymphocytes; test: cytotoxicity by propidium iodide (PI) flow cytometry; format: cell-based; conditions: 50 nM to 50 μM
Protocol: The cytotoxicity of the compound according to Formula (9) was determined by means of propidium iodide (PI) employing flow cytometry. PI is a DNA stain that cannot penetrate into living cells. The experiments were carried out in an incubator at 37° C. [98.6° F.] and 5% CO2.
Peripheral blood lymphocytes were incubated with concentrations of 50 nM, 100 nM, 1 μM, 5 μM, 20 μM or 50 μM of the compound according to Formula (9) in “VLE-RPMI+/+” (Biochrom). The DMSO concentration per batch was 0.5%. A control batch contained 0.5% DMSO. After 2 hours, 24 hours and 72 hours, cells were removed and incubated with 2 μg/ml of PI for 5 minutes. The cells were centrifuged at 200×g for 8 minutes, washed with PBS, centrifuged again and analyzed in a flow cytometer (Beckmann Coulter, Krefeld).

Structure (SMILES): COc1nc(-c2ccc3c(c2)OCO3)n(-c2ccc(NC(=O)CSc3ccccc3)cc2)n1 [Compound 9]
- IC50 (sec7-domain of Gea2): 64 ± 4 µM
- IC50 [1]: 7.6 ± 0.3 µM
- specificity of inhibition of sec7-domains (cytohesins vis-à-vis Gea2) [2]: specific inhibition of the sec7-domains of the cytohesins
- IC50 [3]: 8.3 ± 0.2 µM
- percentage of PI-positive (dead) cells ([4]; 2 hours, 24 hours and 72 hours): did not rise in a concentration-dependent or time-dependent manner
- cytotoxicity ([4]; conclusion from PI flow cytometry, up to 72 hours): no cytotoxicity or at least no clearly detectable cytotoxicity
